# System: participants with SSc-RP
# Assay: Scleroderma Health Assessment Questionnaire (SHAQ): disability indices and visual analog scales
# Assay type: in vivo, human
# Procedure, shortened: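 Participants with SSc-RP completed the SHAQ at screening and each in-clinic visit. Standard and alternative disability indices (eight categories, 0–3; standard adjusts for aids/assistance) plus Raynaud's VAS on interference over the past 7 days. Reported as absolute change from baseline to end of each dosing period.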
# [1] = Baseline, Tadalafil 5 mg (N = 5), Patients with Diagnosis of SSc, PP Population Part A
# [2] = Day 12, Modified ITT, Part A, dose Cilnidipine 10 mg, Tadalafil 5 mg, or 10 mg + 5 mg
# [3] = Day 12, Tadalafil 5 mg (N = 5), Patients with Diagnosis of SSc, PP Population Part A
# [4] = Day 12, mITT Part A, SSc patients, cilnidipine 10 mg and/or tadalafil 5 mg as in the arm
# [5] = Day 12, mITT Part A, SSc patients, cilnidipine 10 mg and/or tadalafil 5 mg as in the arm, subject 01-110 score excluded
# [6] = In-Clinic Visit (Day 12), Tadalafil 5 mg (N = 5), Patients with Diagnosis of SSc, PP Population Part A
# [7] = Modified ITT, Part A, dose Cilnidipine 10 mg, Tadalafil 5 mg, or 10 mg + 5 mg
compound,measurement,setting,value
"CN1CC(=O)N2[C@H](c3ccc4c(c3)OCO4)c3[nH]c4ccccc4c3C[C@@H]2C1=O [Tadalafil, tadalafil]","SHAQ Alternative Disability Index, Mean",[1],0.450
same,"SHAQ Alternative Disability Index, Median",[1],0.375
same,"SHAQ Standard Disability Index, Mean",[1],0.550
same,"SHAQ Standard Disability Index, Median",[1],0.500
same,"SHAQ Alternative Disability Index, Change from Baseline, Mean",[2],−0.094
same,"SHAQ Alternative Disability Index, Change from Baseline, Median",[2],−0.125
same,"SHAQ Alternative Disability Index, Percent Change from Baseline, Mean",[2],−43.70%
same,"SHAQ Alternative Disability Index, Percent Change from Baseline, Median",[2],−20.00%
same,"SHAQ Finger Ulcers, Change from Baseline, Mean",[2],0.250
same,"SHAQ Finger Ulcers, Change from Baseline, Median",[2],0.000
same,"SHAQ Finger Ulcers, Percent Change from Baseline, Mean",[2],6.10%
same,"SHAQ Finger Ulcers, Percent Change from Baseline, Median",[2],6.10%
same,"SHAQ Standard Disability Index, Change from Baseline, Mean",[2],−0.063
same,"SHAQ Standard Disability Index, Change from Baseline, Median",[2],−0.063
same,"SHAQ Standard Disability Index, Percent Change from Baseline, Mean",[2],−9.26%
same,"SHAQ Standard Disability Index, Percent Change from Baseline, Median",[2],−11.11%
same,"SHAQ Visual Analog Scale-Breathing Problems, Change from Baseline, Mean",[2],0.500
same,"SHAQ Visual Analog Scale-Breathing Problems, Change from Baseline, Median",[2],1.050
same,"SHAQ Visual Analog Scale-Breathing Problems, Percent Change from Baseline, Mean",[2],−2.66%
same,"SHAQ Visual Analog Scale-Breathing Problems, Percent Change from Baseline, Median",[2],29.58%
same,"SHAQ Visual Analog Scale-Intestinal Problems, Change from Baseline, Mean",[2],−0.125
same,"SHAQ Visual Analog Scale-Intestinal Problems, Change from Baseline, Median",[2],0.000
same,"SHAQ Visual Analog Scale-Intestinal Problems, Percent Change from Baseline, Mean",[2],−6.92%
same,"SHAQ Visual Analog Scale-Intestinal Problems, Percent Change from Baseline, Median",[2],0.00%
same,"SHAQ Visual Analog Scale-Pain, Change from Baseline, Mean",[2],1.000
same,"SHAQ Visual Analog Scale-Pain, Change from Baseline, Median",[2],0.800
same,"SHAQ Visual Analog Scale-Pain, Percent Change from Baseline, Mean",[2],31.35%
same,"SHAQ Visual Analog Scale-Pain, Percent Change from Baseline, Median",[2],10.81%
same,"SHAQ Visual Analog Scale-Raynaud's, Change from Baseline, Mean",[2],−0.825
same,"SHAQ Visual Analog Scale-Raynaud's, Change from Baseline, Median",[2],−0.500
same,"SHAQ Visual Analog Scale-Raynaud's, Percent Change from Baseline, Mean",[2],−19.71%
same,"SHAQ Visual Analog Scale-Raynaud's, Percent Change from Baseline, Median",[2],−20.67%
same,"SHAQ Alternative Disability Index, Change from Baseline, Mean",[3],−0.094
same,"SHAQ Alternative Disability Index, Change from Baseline, Median",[3],−0.125
same,"SHAQ Alternative Disability Index, Percent Change from Baseline, Mean",[3],−43.70%
same,"SHAQ Alternative Disability Index, Percent Change from Baseline, Median",[3],−20.00%
same,"SHAQ Standard Disability Index, Change from Baseline, Mean",[3],−0.063
same,"SHAQ Standard Disability Index, Change from Baseline, Median",[3],−0.063
same,"SHAQ Standard Disability Index, Percent Change from Baseline, Mean",[3],−9.26%
same,"SHAQ Standard Disability Index, Percent Change from Baseline, Median",[3],−11.11%
same,"SHAQ Alternative Disability Index, Change from Baseline, Mean",[4],−0.094
same,"SHAQ Alternative Disability Index, Change from Baseline, Median",[4],−0.125
same,"SHAQ Alternative Disability Index, In-Clinic Visit (Day 12), Mean",[4],0.375
same,"SHAQ Alternative Disability Index, In-Clinic Visit (Day 12), Median",[4],0.250
same,"SHAQ Alternative Disability Index, Percent Change from Baseline, Mean",[4],−43.70%
same,"SHAQ Alternative Disability Index, Percent Change from Baseline, Median",[4],−20.00%
same,"SHAQ Visual Analogue Scale - Finger Ulcers, Change from Baseline, Mean",[4],0.250
same,"SHAQ Visual Analogue Scale - Finger Ulcers, Change from Baseline, Median",[4],0.000
same,"SHAQ Visual Analogue Scale - Finger Ulcers, In-Clinic Visit (Day 12), Mean",[4],2.325
same,"SHAQ Visual Analogue Scale - Finger Ulcers, In-Clinic Visit (Day 12), Median",[4],0.050
same,"SHAQ Visual Analogue Scale - Finger Ulcers, Percent Change from Baseline, Mean",[4],6.10%
same,"SHAQ Visual Analogue Scale - Finger Ulcers, Percent Change from Baseline, Median",[4],6.10%
same,"SHAQ Visual Analogue Scale - Intestinal Problems, Change from Baseline, Mean",[4],−0.125
same,"SHAQ Visual Analogue Scale - Intestinal Problems, Change from Baseline, Median",[4],0.000
same,"SHAQ Visual Analogue Scale - Intestinal Problems, In-Clinic Visit (Day 12), Mean",[4],3.025
same,"SHAQ Visual Analogue Scale - Intestinal Problems, In-Clinic Visit (Day 12), Median",[4],1.450
same,"SHAQ Visual Analogue Scale - Intestinal Problems, Percent Change from Baseline, Mean",[4],−6.92%
same,"SHAQ Visual Analogue Scale - Intestinal Problems, Percent Change from Baseline, Median",[4],0.00%
same,"SHAQ Visual Analogue Scale - Overall Disease Severity, Change from Baseline, Mean",[4],0.625
same,"SHAQ Visual Analogue Scale - Overall Disease Severity, Change from Baseline, Median",[4],0.700
same,"SHAQ Visual Analogue Scale - Overall Disease Severity, In-Clinic Visit (Day 12), Mean",[4],5.600
same,"SHAQ Visual Analogue Scale - Overall Disease Severity, In-Clinic Visit (Day 12), Median",[4],6.550
same,"SHAQ Visual Analogue Scale - Overall Disease Severity, Percent Change from Baseline, Mean",[4],32.49%
same,"SHAQ Visual Analogue Scale - Overall Disease Severity, Percent Change from Baseline, Median",[4],26.79%
same,"SHAQ Visual Analogue Scale - Pain, Change from Baseline, Mean",[4],1.000
same,"SHAQ Visual Analogue Scale - Pain, Change from Baseline, Median",[4],0.800
same,"SHAQ Visual Analogue Scale - Pain, In-Clinic Visit (Day 12), Mean",[4],5.300
same,"SHAQ Visual Analogue Scale - Pain, In-Clinic Visit (Day 12), Median",[4],5.850
same,"SHAQ Visual Analogue Scale - Pain, Percent Change from Baseline, Mean",[4],31.35%
same,"SHAQ Visual Analogue Scale - Pain, Percent Change from Baseline, Median",[4],10.81%
same,"SHAQ Visual Analogue Scale - Raynaud's, Change from Baseline, Mean",[4],−0.825
same,"SHAQ Visual Analogue Scale - Raynaud's, Change from Baseline, Median",[4],−0.500
same,"SHAQ Visual Analogue Scale - Raynaud's, In-Clinic Visit (Day 12), Mean",[4],4.950
same,"SHAQ Visual Analogue Scale - Raynaud's, In-Clinic Visit (Day 12), Median",[4],5.200
same,"SHAQ Visual Analogue Scale - Raynaud's, Percent Change from Baseline, Mean",[4],−19.71%
same,"SHAQ Visual Analogue Scale - Raynaud's, Percent Change from Baseline, Median",[4],−20.67%
same,"SHAQ Visual Analogue Scale - Breathing Problems, Change from Baseline, Mean",[5],0.500
same,"SHAQ Visual Analogue Scale - Breathing Problems, Change from Baseline, Median",[5],1.050
same,"SHAQ Visual Analogue Scale - Breathing Problems, In-Clinic Visit (Day 12), Mean",[5],4.300
same,"SHAQ Visual Analogue Scale - Breathing Problems, In-Clinic Visit (Day 12), Median",[5],4.000
same,"SHAQ Visual Analogue Scale - Breathing Problems, Percent Change from Baseline, Mean",[5],−2.66%
same,"SHAQ Visual Analogue Scale - Breathing Problems, Percent Change from Baseline, Median",[5],29.58%
same,"SHAQ Alternative Disability Index, Mean",[6],0.375
same,"SHAQ Alternative Disability Index, Median",[6],0.250
same,"SHAQ Standard Disability Index, Mean",[6],0.531
same,"SHAQ Standard Disability Index, Median",[6],0.563
same,"SHAQ Finger Ulcers, Baseline, Mean",[7],2.075
same,"SHAQ Finger Ulcers, Baseline, Median",[7],0.050
same,"SHAQ Finger Ulcers, In Clinic Visit (Day 12), Mean",[7],2.325
same,"SHAQ Finger Ulcers, In Clinic Visit (Day 12), Median",[7],0.050
same,"SHAQ Standard disability index, Baseline, Mean",[7],0.594
same,"SHAQ Standard disability index, Baseline, Median",[7],0.625
same,"SHAQ Standard disability index, In Clinic Visit (Day 12), Mean",[7],0.531
same,"SHAQ Standard disability index, In Clinic Visit (Day 12), Median",[7],0.563
same,"SHAQ Visual Analog Scale-Breathing Problems, Baseline, Mean",[7],3.800
same,"SHAQ Visual Analog Scale-Breathing Problems, Baseline, Median",[7],4.050
same,"SHAQ Visual Analog Scale-Breathing Problems, In Clinic Visit (Day 12), Mean",[7],4.300
same,"SHAQ Visual Analog Scale-Breathing Problems, In Clinic Visit (Day 12), Median",[7],4.000
same,"SHAQ Visual Analog Scale-Intestinal Problems, Baseline, Mean",[7],3.150
same,"SHAQ Visual Analog Scale-Intestinal Problems, Baseline, Median",[7],2.600
same,"SHAQ Visual Analog Scale-Intestinal Problems, In Clinic Visit (Day 12), Mean",[7],3.025
same,"SHAQ Visual Analog Scale-Intestinal Problems, In Clinic Visit (Day 12), Median",[7],1.450
same,"SHAQ Visual Analog Scale-Pain, Baseline, Mean",[7],5.967
same,"SHAQ Visual Analog Scale-Pain, Baseline, Median",[7],7.400
same,"SHAQ Visual Analog Scale-Pain, In Clinic Visit (Day 12), Mean",[7],5.300
same,"SHAQ Visual Analog Scale-Pain, In Clinic Visit (Day 12), Median",[7],5.850
same,"SHAQ Visual Analog Scale-Raynaud's, Baseline, Mean",[7],5.775
same,"SHAQ Visual Analog Scale-Raynaud's, Baseline, Median",[7],6.400
same,"SHAQ Visual Analog Scale-Raynaud's, In Clinic Visit (Day 12), Mean",[7],4.950
same,"SHAQ Visual Analog Scale-Raynaud's, In Clinic Visit (Day 12), Median",[7],5.200
same,"SHAQ alternative disability index, Baseline, Mean",[7],0.469
same,"SHAQ alternative disability index, Baseline, Median",[7],0.375
